According to a melting point compilation (Tetko et al.; mined from patent text by program, amines drawn as free bases though some values may be those of a salt):

First: Oc1cc(Br)ccc1C12CC3CC(CC(C3)C1)C2
Second: O=C(NCCCC1CC1)c1ccc(N2CCC(N3C(=O)C(F)(F)c4ccccc43)CC2)nn1
The melting point of the first is higher: 112 to 114 °C for the first, 51 to 53 °C for the second.

First: O=C(O)CCCCC(Cc1ccc(F)cc1)C(=O)O (configuration not stated)
Second: CS(=O)(=S)OCc1ccc(C(=O)O)cc1 (configuration not stated)
The melting point of the first is lower: 80 to 81 °C for the first, 188 °C for the second.

Compared with `c1ccc(COc2ccc(C3CO3)nc2)cc1` (configuration not stated), `CC(C)c1ccc(O[C@@H](Cc2ccc(O)cc2)C(=O)N2C(=O)OC[C@@H]2Cc2ccccc2)cc1` is higher in melting point: 45 to 47.5 °C for the first, 142 to 143 °C for the second.

Compared with `CC(C)n1cc(-c2ccccc2)c(=O)c(-c2ccccc2)c1`, `CN1C(=O)[C@H](NC(=O)CCc2ccccc2Cl)N=C(c2ccccc2)c2ccccc21` is higher in melting point: 152 °C for the first, 158 to 160 °C for the second.

First: Cc1ccc(C(=O)/C=C/C(=O)O)o1
Second: CCOC(=O)CC(=O)c1ccc(N)cc1
The melting point of the first is higher: 159 to 162 °C for the first, 82 to 84 °C for the second.

First: CC(=O)NC1CCN(c2ccc(Cl)cn2)CC1
Second: CNc1cc(N2CCC(c3ccccc3)CC2)nc(C)n1
The melting point of the first is higher: 196 to 198 °C for the first, 186 to 188 °C for the second.

First: CCOCc1nc2c(N)nc3ccccc3c2n1CC1CC(c2ccccc2)N(C)O1 (configuration not stated)
Second: CCOCc1nc2c(N)nc3ccccc3c2n1CC(C)(C)N
The melting point of the first is higher: 162 to 163 °C for the first, 161 to 162 °C for the second.

Compared with `Cc1cc(-c2cc(C(=O)O)c(=O)n(CC=Cc3ccccc3)n2)ccc1F`, `CCOC(=O)c1c(-c2ccc(F)cc2)c2ccncc2c(=O)n1C` is higher in melting point: 143 to 144 °C for the first, 158 to 160 °C for the second.

First: O=c1c2ccc(-c3nnn[nH]3)cc2[nH]c2ccc(-c3nnn[nH]3)cc12
Second: CC1(c2ccc(-c3ccc(Cl)cc3)cc2)CC(=O)NN1 (configuration not stated)
The melting point of the first is higher: > 350 °C for the first, 214 to 215 °C for the second.

Compared with `CC(C)c1cccc(C(C)C)c1N=c1cccc(-c2ccccc2)[nH]1`, `CC(Nc1nc(-c2ccccc2)cs1)c1ccc(CO)cc1` (configuration not stated) is lower in melting point: 142 to 144 °C for the first, 88 to 90 °C for the second.

First: Cc1ccnc2c(Oc3ccccc3N)cccc12
Second: O=C(c1ccc(F)cc1)c1ccc(-c2ccccc2)cc1
The melting point of the first is higher: 160 to 161 °C for the first, 149 °C for the second.

Compared with `Cc1nn(Cc2ccccc2)c(=O)[nH]c1=O`, `CCN(CC)c1nc(C#N)c(C#N)nc1Cc1ccccc1` is lower in melting point: 141 to 142 °C for the first, 73 to 74 °C for the second.

First: COc1ccc(-n2cc(C(=O)O)c(=O)c3cc(F)c(F)c(F)c32)cc1
Second: COc1ccc(-c2c(NCCc3ccc(C(C)(C)C)cc3)c(=O)c2=O)cc1
The melting point of the first is lower: 252 to 254 °C for the first, 258 to 260 °C for the second.

First: N#CC1=C(c2ccc(Br)s2)Nc2n[nH]cc2C1c1cccc2nonc12 (configuration not stated)
Second: CCCc1nc2c(N)nc(C)c(C)c2n1Cc1cc(-c2ccc(F)cc2)no1
The melting point of the first is lower: 208 °C for the first, 227 to 229 °C for the second.

Compared with `O=C(CCN1CCC(C(O)(c2ccc(F)cc2)c2ccc(F)cc2)CC1)N(c1ccccc1)c1ccccc1`, `O=C(O)c1ccc(OCCCc2ccc(OCCCCOc3ccccc3)cc2)c(C(=O)N2CCC(C(=O)O)CC2)c1` is lower in melting point: 160 to 162 °C for the first, 142 to 143 °C for the second.

First: COC(=O)c1occc1CN1C(=O)c2ccccc2C1=O
Second: COc1ccc(C(=O)CC2CCN(CCn3c(=O)[nH]c4ccccc43)CC2)cc1
The melting point of the first is lower: 140 to 143 °C for the first, 156 °C for the second.

First: CSc1nccc(C)c1NC(=O)CCCCCCCCSc1nc2ccccc2o1
Second: CCCCCCCCCCCCCCCCCCNC(=O)C(=O)NCCc1ccc(O)cc1
The melting point of the first is lower: 91 to 92 °C for the first, 167 °C for the second.

First: CCOC(=O)C(Cc1c[nH]c2c(C(=O)c3ccc(Cl)cc3)cccc12)C(=O)OCC
Second: CCCCOC(=O)c1ccc2ccc(C(=O)NCc3ccc(O)c(O)c3)nc2c1OC(=O)C(C)(C)C
The melting point of the first is higher: 197 to 201 °C for the first, 189 °C for the second.

Compared with `CC(=O)OCC1CC(OC(C)=O)C(n2cc(C(I)=CI)c(=O)[nH]c2=O)O1` (configuration not stated), `CCOC(=O)c1nc2ccc(N)cc2c(=O)[nH]1` is higher in melting point: 75 to 77 °C for the first, 233 to 235 °C for the second.

First: COC(=O)C(C)(N)Cc1c[nH]c2ccc(OC(F)F)cc12 (racemic)
Second: CCC(=O)c1ccc(OC(C)(C)C(=O)OC)cc1
The melting point of the first is higher: 140 to 142 °C for the first, 47 to 49 °C for the second.

First: Cn1ncnc1COc1nn2c(-c3ccccc3F)nncc2c1-c1cccc(-c2cccnc2)c1
Second: CS(=O)(=O)Nc1cc(C(=O)NNC(=O)c2occ(-c3ccccc3)c2-c2ccccc2)ccc1O
The melting point of the first is lower: 157 to 163 °C for the first, 230 to 231 °C for the second.

Compared with `CCOc1cc2c(Nc3cc(OC)c(Cl)cc3Cl)c(C#N)cnc2cc1I`, `COc1cc2ncc(C#N)c(Nc3ccc(O)cc3O)c2cc1OC` is higher in melting point: 213 to 215 °C for the first, > 250 °C for the second.

First: O=C(O)Cc1cc(Cl)c2c(c1)CCC(C(F)(F)F)N2 (configuration not stated)
Second: Cc1cc(Cl)c2c(c1)C=C(C(=O)O)C(C(F)(F)F)O2 (configuration not stated)
The melting point of the first is lower: 110 to 112 °C for the first, 226 to 227 °C for the second.

Compared with `Cc1cc(C#C[Si](C(C)C)(C(C)C)C(C)C)n(-c2ccc([N+](=O)[O-])cc2)n1`, `CC(C)C(c1ccc(CC(N)=O)cc1)n1ccnc1` (configuration not stated) is higher in melting point: 71 to 73 °C for the first, 244 °C for the second.

First: Cc1csc(-c2cc(-c3ccncc3)c3n(c2=O)CCCc2ccncc2-3)n1
Second: CN1CCC(=C2c3cc(C#N)ccc3C=Cn3cccc32)CC1
The melting point of the first is higher: 300 to 302 °C for the first, 156 to 159 °C for the second.

Compared with `CC(=O)Nc1ccc(C=CC(=O)O)c(NC(=O)NC(=O)c2cc(F)c(F)cc2Cl)c1`, `COc1cc(CC(=O)NCCOc2ccc(C(=O)O)cc2[N+](=O)[O-])ccc1NC(=O)Nc1ccccc1C` is lower in melting point: 196 °C for the first, 112 to 115 °C for the second.

Compared with `Cc1cccc(NC(=O)NC2CN(C(=O)C3CCCCC3)c3ccccc3N(c3ccccc3)C2=O)c1` (configuration not stated), `O=C(Nc1ccc(Cl)cc1)O[C@H]1COC(c2ccccc2)=N[C@@H]1c1ccccc1` (racemic) is higher in melting point: 165 to 168 °C for the first, 200 °C for the second.

Compared with `Cc1nc(OCCO)c(C#N)c(N2CCc3ccccc3CC2)n1`, `CCOC(=O)C1(c2ccccc2)CCN(C2=CCC(C#N)(c3ccccn3)CC2)CC1` (configuration not stated) is higher in melting point: 86.7 to 92.3 °C for the first, 160 °C for the second.

`Cc1ccc(S(=O)(=O)C(=[N+]=[N-])C(=O)C(C)(C)C)cc1` and `CS(=O)(=O)C(=[N+]=[N-])S(C)(=O)=O` cannot be ordered by melting point: 120 to 122 °C for the first, 120 to 124 °C for the second.

First: O=C(O)C1=CSC2C(=Cc3cc4c(s3)CCSC4)C(=O)N12 (configuration not stated)
Second: CCN1CC2=C3C(=NN(c4ccc(C(C)C)cc4Br)C(=O)N3CC2)C(C)=N1
The melting point of the first is higher: > 250 °C for the first, 144 to 146 °C for the second.

First: Oc1ccc(C2COC(c3c(F)cccc3F)=N2)cc1 (configuration not stated)
Second: OCc1conc1-c1ccc(Cl)c(F)c1
The melting point of the first is higher: 145 to 147 °C for the first, 124 to 125 °C for the second.

First: Nc1ccc2c(ccn2O)n1
Second: COc1cc2ncnc(N3CCc4ccc(C(C)C)cc43)c2cc1OC
The melting point of the first is higher: 227 to 228 °C for the first, 128 to 129 °C for the second.

Compared with `CC(=O)CC(=O)NC1CCC(C)CC1` (configuration not stated), `O=[N+]([O-])c1cccc(Nc2nc(Cl)nc(NC3CCCCCC3)n2)c1` is lower in melting point: 111 °C for the first, 82 °C for the second.

First: O=C(O)C1CSC(c2ccc(OCCO[N+](=O)[O-])cc2)N1 (configuration not stated)
Second: COc1ccc(C(=C(c2ccc(OC)cc2)C(F)(F)F)c2ccc(F)cc2)cc1
The melting point of the first is higher: 139 to 141 °C for the first, 75 to 77 °C for the second.

Compared with `Cc1cc(O)c(C)c(C)c1N`, `COc1cc(Nc2nc3cccc(-c4ccc(S(N)(=O)=O)cc4)c3o2)cc(OC)c1OC` is higher in melting point: 153 to 154 °C for the first, 247 to 252 °C for the second.

First: CC(N=C(O)C(Cl)=C(Cl)C(=O)O)c1ccccc1 (configuration not stated)
Second: CCOc1cc2nc(S(=O)c3ccccc3-c3ccccn3)[nH]c2cc1OCC (configuration not stated)
The melting point of the first is lower: 62 to 65 °C for the first, 194 to 195 °C for the second.
